The experiment has as its system P. falciparum W2 (chloroquine resistant) strain. The experiment in a line: In vitro activity against cultured W2 strain P. falciparum. Format: cell-based, Plasmodium falciparum.

`COC(=O)c1ccc(Oc2ccc3c(c2)B(O)OC3)cn1` [Compound 5, Methyl 5-(1-Hydroxy-1,3-dihydrobenzo[c][1,2]oxaborol-6-yloxy)picolinate]: where the note is “ester 5 vs acid 4, W2 and 3D7 strains”, the “fold more active than acid compound 4” value is on record as “about 5 fold”. As usually defined, the IC50 is the point on the concentration scale where inhibition reaches its midpoint. Regarding `CCN(CC)CCCC(C)Nc1ccnc2cc(Cl)ccc12` (centres unmarked) [chloroquine], the IC50 (Plasmodium falciparum, W2, 48 h, read-out: IC50 (nM) (W2)) amounted to 21 ± 6 nM.

Source of the values: paper PMC4500456 (Journal of Medicinal Chemistry, 2015).
